Data reported in publication PMC3445454, “Broad and Cross-Clade CD4^+ T-Cell Responses Elicited by a DNA Vaccine Encoding Highly Conserved and Promiscuous HIV-1 M-Group Consensus Peptides” (PLoS ONE, 2012).
Positions count from the first letter of the chain named.

Experiments:
HLA-DR DRB3*01:01 = HLA-DR DRB3*01:01 (Homo sapiens, UniProt P01903+P79483); test: biochemical; format: binding
HLA-DR DRB5*01:01 = HLA-DR DRB5*01:01 (Homo sapiens, UniProt P01903+Q30154); test: biochemical; format: binding
[1] = biological target: HLA-DP DPA1*02:01/DPB1*01:01 (Homo sapiens, UniProt P04440+P20036, F191V/F38Y/F64Y/G113D/G114E/K142R/L158P/L37V/M105V/M116V/M62Q/P115A/Q81R/R125K/R223Q/T114A/T199I/T259P); test: biochemical
[2] = biological target: HLA-DP DPA1*03:01/DPB1*04:02 (Homo sapiens, UniProt P04440+P20036, A42M/A65V/A84D/A85E/L207M/L97S); test: biochemical
[3] = biological target: T1, HLA-DP DPA1*02:01/DPB1*05:01 (Homo sapiens, UniProt P04440+P20036, A65V/A84E/F191V/F64L/G113D/G114E/K142R/L158P/M116V/M62Q/P115A/Q81R/R125K/T114A/T199I/T259P/V234M); test: biochemical; format: binding; settings: read-out: Binding capacity/IC50 (nM) DPA1*02:01 DPB1*05:01
T1 sequence (P20036 29-260 A42M/M62Q/Q81R/T114A/K142R/L158P/F191V/T259P): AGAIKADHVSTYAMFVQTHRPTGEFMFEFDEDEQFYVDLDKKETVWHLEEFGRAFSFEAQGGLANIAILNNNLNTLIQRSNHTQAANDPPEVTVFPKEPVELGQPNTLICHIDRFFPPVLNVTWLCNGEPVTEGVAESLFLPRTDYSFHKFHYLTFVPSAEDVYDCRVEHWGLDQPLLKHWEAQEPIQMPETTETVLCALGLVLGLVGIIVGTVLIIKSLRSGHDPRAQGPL
T1 sequence (P04440 30-258 F64L/A65V/A84E/G113D/G114E/P115A/M116V/R125K/T199I/V234M): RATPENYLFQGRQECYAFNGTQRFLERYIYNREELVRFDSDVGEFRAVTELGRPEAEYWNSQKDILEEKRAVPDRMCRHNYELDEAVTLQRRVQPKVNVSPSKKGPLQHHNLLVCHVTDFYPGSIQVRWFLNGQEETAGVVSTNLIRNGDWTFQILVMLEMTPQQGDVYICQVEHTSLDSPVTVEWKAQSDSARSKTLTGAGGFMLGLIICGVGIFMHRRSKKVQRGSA

[4] = biological target: T2, HLA-DP DPA1*01:03/DPB1*02:01 (Homo sapiens, UniProt P04440+P20036, A65V/A84D/A85E/K98E); test: biochemical; format: binding
T2 sequence (P20036 29-260): T1 sequence (P20036 29-260 A42M/M62Q/Q81R/T114A/K142R/L158P/F191V/T259P) with M14A, Q34M, R53Q, A86T, R114K, P130L, V163F, P231T
T2 sequence (P04440 30-258 A65V/A84D/A85E/K98E): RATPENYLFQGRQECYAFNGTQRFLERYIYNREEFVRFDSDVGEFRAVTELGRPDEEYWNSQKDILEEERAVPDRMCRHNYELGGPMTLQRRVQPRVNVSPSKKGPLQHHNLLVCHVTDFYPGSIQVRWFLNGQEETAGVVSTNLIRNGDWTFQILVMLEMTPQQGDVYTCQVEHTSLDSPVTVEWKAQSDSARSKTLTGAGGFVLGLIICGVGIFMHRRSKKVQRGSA

[5] = biological target: T3, HLA-DP DPA1*01:03/DPB1*04:01 (Homo sapiens, UniProt P04440+P20036); test: biochemical; format: binding
T3 sequence (P20036 29-260): T1 sequence (P20036 29-260 A42M/M62Q/Q81R/T114A/K142R/L158P/F191V/T259P) with M14A, Q34M, R53Q, A86T, R114K, P130L, V163F, P231T
T3 sequence (P04440 30-258): T2 sequence (P04440 30-258 A65V/A84D/A85E/K98E) with V36A, D55A, E56A, E69K

[6] = biological target: T4, HLA-DP DPA1*01:03/DPB1*20:01 (Homo sapiens, UniProt P04440+P20036, A65V/A84D/A85E/E86D/F38Y/G113D/G114E/G40L/I94L/L37V/M116V/P115A/R125K/T199I); test: biochemical; format: binding; settings: read-out: Binding capacity/IC50 (nM) DPA1*01:03 DPB1*20:01
T4 sequence (P20036 29-260): T1 sequence (P20036 29-260 A42M/M62Q/Q81R/T114A/K142R/L158P/F191V/T259P) with M14A, Q34M, R53Q, A86T, R114K, P130L, V163F, P231T
T4 sequence (P04440 30-258 L37V/F38Y/G40L/A65V/A84D/A85E/E86D/I94L/G113D/G114E/P115A/M116V/R125K/T199I/V234M): T1 sequence (P04440 30-258 F64L/A65V/A84E/G113D/G114E/P115A/M116V/R125K/T199I/V234M) with L8V, F9Y, G11L, L35F, E55D, A56E, E57D, I65L

[7] = biological target: T5, HLA-DP DPA1*01:03/DPB1*03:01 (Homo sapiens, UniProt P04440+P20036, A65V/A84D/A85E/E86D/F38Y/G113D/G114E/G40L/I94L/L37V/M105V/M116V/P115A/R125K/T199I); test: biochemical; format: binding; settings: read-out: Binding capacity/IC50 (nM) DPA1*01:03 DPB1*03:01
T5 sequence (P20036 29-260): T1 sequence (P20036 29-260 A42M/M62Q/Q81R/T114A/K142R/L158P/F191V/T259P) with M14A, Q34M, R53Q, A86T, R114K, P130L, V163F, P231T
T5 sequence (P04440 30-258 L37V/F38Y/G40L/A65V/A84D/A85E/E86D/I94L/M105V/G113D/G114E/P115A/M116V/R125K/T199I): T1 sequence (P04440 30-258 F64L/A65V/A84E/G113D/G114E/P115A/M116V/R125K/T199I/V234M) with L8V, F9Y, G11L, L35F, E55D, A56E, E57D, I65L, M76V, M205V

[8] = biological target: T6, HLA-DP DPA1*02:01/DPB1*14:01 (Homo sapiens, UniProt P04440+P20036, A65V/A84D/A85E/E86D/F191V/F38H/G113D/G114E/G40L/I94L/K142R/L158P/L37V/M105V/M116V/M62Q/P115A/Q81R/R125K/T114A/T199I/T259P); test: biochemical; format: binding; settings: read-out: Binding capacity/IC50 (nM) DPA1*02:01 DPB1*14:01
T6 sequence (P20036 29-260 A42M/M62Q/Q81R/T114A/K142R/L158P/F191V/T259P): T1 sequence (P20036 29-260 A42M/M62Q/Q81R/T114A/K142R/L158P/F191V/T259P)
T6 sequence (P04440 30-258 L37V/F38H/G40L/A65V/A84D/A85E/E86D/I94L/M105V/G113D/G114E/P115A/M116V/R125K/T199I/R223Q): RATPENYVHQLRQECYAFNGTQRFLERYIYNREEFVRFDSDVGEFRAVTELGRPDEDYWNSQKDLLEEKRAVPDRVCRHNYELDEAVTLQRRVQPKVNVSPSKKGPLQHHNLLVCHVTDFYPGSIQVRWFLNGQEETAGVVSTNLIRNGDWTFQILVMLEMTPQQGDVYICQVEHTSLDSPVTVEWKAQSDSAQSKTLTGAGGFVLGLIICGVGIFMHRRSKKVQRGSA

[9] = tested on: splenocytes from HIVBr27 immunized mice; test: murine IFN-γ ELISPOT assay; format: in vivo; settings: splenocytes of HIVBr27-immunized BALB/c mice, 5 µM peptide
Method: Six to eight week-old female BALB/c mice were used in this study. Six mice per group were injected intramuscularly, at weeks 0, 2 and 4, with HIVBr27 plasmid or empty pVAX1. Each quadriceps was injected with 50 µL of DNA at a concentration of 1 µg/µL in saline such that each animal received a total of 100 µg of plasmid DNA per immunization. Two weeks after the last DNA immunization, mice were euthanized with CO2.
Two weeks after the last immunization, mice were euthanized and spleens were removed aseptically. After obtaining single cell suspensions, cells were washed in 10 mL of RPMI 1640. Cells were then resuspended in R-10 (RPMI supplemented with 10% of fetal bovine serum (GIBCO), 2 mM L-glutamine (Life Technologies), 1 mM sodium pyruvate (Life Technologies), 1% vol/vol non-essential amino acids solution (Life Technologies), 1% vol/vol vitamin solution (Life Technologies), […] of Gentamicin, […] of Peflacin and 5×10^−5 M 2β-mercaptoetanol (Life Technologies). The viability of cells was evaluated using 0.2% Trypan Blue exclusion dye to discriminate between live and dead cells. Cell concentration was estimated with the aid of a Neubauer chamber and adjusted in cell culture medium. […]

CSCC[C@H](NC(=O)[C@@H]1CCCN1C(=O)[C@H](CCCNC(=N)N)NC(=O)[C@H](CC(C)C)NC(=O)[C@@H]1CCCN1C(=O)[C@@H](NC(=O)[C@H](CCC(N)=O)NC(=O)[C@@H]1CCCN1C(=O)[C@H](CCCNC(=N)N)NC(=O)[C@@H](NC(=O)[C@@H]1CCCN1C(=O)[C@H](Cc1ccccc1)NC(=O)CN)C(C)C)C(C)C)C(=O)N[C@H](C(=O)N[C@@H](Cc1ccc(O)cc1)C(=O)N[C@@H](CCCCN)C(=O)NCC(=O)N[C@@H](C)C(=O)N[C@@H](Cc1ccccc1)C(=O)N[C@@H](CC(=O)O)C(=O)N[C@@H](CC(C)C)C(N)=O)[C@@H](C)O [nef(67-87)]
IC50 (HLA-DR DRB3*01:01): 6.29 µM
IC50 (HLA-DR DRB5*01:01): 191 nM

CC[C@H](C)[C@H](NC(=O)[C@H](CCSC)NC(=O)[C@@H](NC(=O)[C@H](CCC(N)=O)NC(=O)[C@H](Cc1c[nH]c2ccccc12)NC(=O)[C@H](CCCNC(=N)N)NC(=O)[C@H](CC(N)=O)NC(=O)[C@H](CCC(=O)O)NC(=O)[C@@H](N)CCSC)C(C)C)C(=O)N[C@H](C(=O)N[C@@H](Cc1c[nH]c2ccccc12)C(=O)N[C@@H](CCC(N)=O)C(=O)N[C@H](C(=O)N[C@@H](CC(=O)O)C(=O)N[C@@H](CCCNC(=N)N)C(N)=O)C(C)C)C(C)C [vif(1-15)]
IC50 [1]: 1030 nM
IC50 [2]: 3.75 µM
IC50 [3]: 8170 nM
IC50 [4]: 1550 nM
IC50 [5]: 13 nM
IC50 [6]: 364 nM
IC50 [7]: 5840 nM
IC50 [8]: 7240 nM

EWEFVSTPPLVKLWY [RT(413-427) B subtype]
IFN-γ secretion against variant compared to M-group consensus peptide [9]: reduced

EWEYVNTPPLVKLWY [RT(413-427) D subtype]
IFN-γ secretion against variant compared to M-group consensus peptide [9]: reduced
